Measurements taken from patent US20230085307A1, “PYRIDAZINONE COMPOUND AND HERBICIDE” (NISSAN CHEMICAL CORPORATION, priority 2019, published 2023).

Columns and labels:
[1] = system: late watergrass; test: Test Example 1: herbicidal activity, application before weed generation under submerged conditions (Table 16, symbol A); type: in vivo, late watergrass (Echinochloa oryzicola); conditions: amount of applied herbicide 320 g/ha
In short: (§1)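 Submerged Wagner pots (alluvial soil, 4 cm water) sown with weed seeds and planted with 2.5-leaf rice seedlings; emulsifiable concentrate diluted in water applied to water surface on sowing day. Held in greenhouse at 25-30 °C; injury scored 0-5 by herbicidal rate after three weeks.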

[2] = system: Japanese bulrush; test: Test Example 1: herbicidal activity, application before weed generation under submerged conditions (Table 16, symbol B); type: in vivo, Japanese bulrush (Schoenoplectus juncoides); conditions: amount of applied herbicide 320 g/ha
In short: as §1

[3] = system: oval-leafed pondweed; test: Test Example 1: herbicidal activity, application before weed generation under submerged conditions (Table 16, symbol C); type: in vivo, oval-leafed pondweed (Monochoria vaginalis); conditions: amount of applied herbicide 320 g/ha
In short: as §1

[4] = system: barnyard grass; test: Test Example 3: herbicidal effect by foliage application, Wagner pot (Table 18, symbol H); type: in vivo, barnyard grass (Echinochloa crus-galli); conditions: amount of applied herbicide 320 g/ha
In short: (§2)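 Plants were sown in alluvial soil held under 0.1–0.5 cm standing water and grown 14 days in a greenhouse at 25–30 °C. An emulsifiable formulation, water-diluted to the set dose, was then sprayed onto the foliage, and effects were scored three weeks later using previously defined criteria.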

[5] = system: Chinese sprangletop; test: Test Example 3: herbicidal effect by foliage application, Wagner pot (Table 18, symbol D); type: in vivo, chinese sprangletop (Leptochloa chinensis); conditions: amount of applied herbicide 320 g/ha
In short: as §2

[6] = system: rice flat sedge; test: Test Example 3: herbicidal effect by foliage application, Wagner pot (Table 18, symbol E); type: in vivo, rice flat sedge (Cyperus iria); conditions: amount of applied herbicide 320 g/ha
In short: as §2

[7] = system: southern crabgrass; test: Test Example 4: herbicidal effect by soil treatment (Table 19, symbol F); type: in vivo, southern crabgrass (Digitaria ciliaris); conditions: amount of applied herbicide 320 g/ha
In short: (§3)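 Pre-emergence style soil spray: seeds under ~1.5 cm sterilized diluvial soil received a uniform coat of emulsion diluted to the predetermined herbicide amount. Greenhouse 25–30° C; readout at week three on previously defined criteria.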

[8] = system: green foxtail; test: Test Example 4: herbicidal effect by soil treatment (Table 19, symbol G); type: in vivo, green foxtail (Setaria viridis); conditions: amount of applied herbicide 320 g/ha
In short: as §3

[9] = system: barnyard grass; test: Test Example 4: herbicidal effect by soil treatment (Table 19, symbol H); type: in vivo, barnyard grass (Echinochloa crus-galli); conditions: amount of applied herbicide 320 g/ha
In short: as §3

[10] = system: wild oat; test: Test Example 4: herbicidal effect by soil treatment (Table 19, symbol I); type: in vivo, wild oat (Avena fatua); conditions: amount of applied herbicide 320 g/ha
In short: as §3

[11] = system: blackgrass; test: Test Example 4: herbicidal effect by soil treatment (Table 19, symbol J); type: in vivo, blackgrass (Alopecurus myosuroides); conditions: amount of applied herbicide 320 g/ha
In short: as §3

[12] = system: Italian ryegrass; test: Test Example 4: herbicidal effect by soil treatment (Table 19, symbol K); type: in vivo, Italian ryegrass (Lolium multiflorum); conditions: amount of applied herbicide 320 g/ha
In short: as §3

[13] = system: windgrass; test: Test Example 4: herbicidal effect by soil treatment (Table 19, symbol L); type: in vivo, windgrass (Apera spica-venti); conditions: amount of applied herbicide 320 g/ha
In short: as §3

[14] = system: velvetleaf; test: Test Example 4: herbicidal effect by soil treatment (Table 19, symbol M); type: in vivo, velvetleaf (Abutilon theophrasti); conditions: amount of applied herbicide 320 g/ha
In short: as §3

[15] = system: redroot pigweed; test: Test Example 4: herbicidal effect by soil treatment (Table 19, symbol N); type: in vivo, redroot pigweed (Amaranthus retroflexus); conditions: amount of applied herbicide 320 g/ha
In short: as §3

[16] = system: lambsquarters; test: Test Example 4: herbicidal effect by soil treatment (Table 19, symbol O); type: in vivo, lambsquarters (Chenopodium album); conditions: amount of applied herbicide 320 g/ha
In short: as §3

[17] = system: chickweed; test: Test Example 4: herbicidal effect by soil treatment (Table 19, symbol P); type: in vivo, common chickweed (Stellaria media); conditions: amount of applied herbicide 320 g/ha
In short: as §3

[18] = system: persian speedwell; test: Test Example 4: herbicidal effect by soil treatment (Table 19, symbol R); type: in vivo, Persian speedwell (Veronica persica); conditions: amount of applied herbicide 320 g/ha
In short: as §3

[19] = system: southern crabgrass; test: Test Example 5: herbicidal effect by foliage application, plastic box (Table 20, symbol F); type: in vivo, southern crabgrass (Digitaria ciliaris); conditions: foliage application, 320 g/ha, three weeks after application
In short: (§4)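 Plants were sown into sterilized diluvial soil under about 1.5 cm cover and kept in a greenhouse at 25° C. to 30° C. Fourteen days on, foliage received an even spray of the diluted emulsion. Herbicidal or crop effect was judged three weeks afterwards.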

[20] = system: green foxtail; test: Test Example 5: herbicidal effect by foliage application, plastic box (Table 20, symbol G); type: in vivo, green foxtail (Setaria viridis); conditions: foliage application, 320 g/ha, three weeks after application
In short: as §4

[21] = system: barnyard grass; test: Test Example 5: herbicidal effect by foliage application, plastic box (Table 20, symbol H); type: in vivo, barnyard grass (Echinochloa crus-galli); conditions: foliage application, 320 g/ha, three weeks after application
In short: as §4

[22] = system: wild oat; test: Test Example 5: herbicidal effect by foliage application, plastic box (Table 20, symbol I); type: in vivo, wild oat (Avena fatua); conditions: foliage application, 320 g/ha, three weeks after application
In short: as §4

[23] = system: blackgrass; test: Test Example 5: herbicidal effect by foliage application, plastic box (Table 20, symbol J); type: in vivo, blackgrass (Alopecurus myosuroides); conditions: foliage application, 320 g/ha, three weeks after application
In short: as §4

[24] = system: Italian ryegrass; test: Test Example 5: herbicidal effect by foliage application, plastic box (Table 20, symbol K); type: in vivo, Italian ryegrass (Lolium multiflorum); conditions: foliage application, 320 g/ha, three weeks after application
In short: as §4

[25] = system: velvetleaf; test: Test Example 5: herbicidal effect by foliage application, plastic box (Table 20, symbol M); type: in vivo, velvetleaf (Abutilon theophrasti); conditions: foliage application, 320 g/ha, three weeks after application
In short: as §4

[26] = system: redroot pigweed; test: Test Example 5: herbicidal effect by foliage application, plastic box (Table 20, symbol N); type: in vivo, redroot pigweed (Amaranthus retroflexus); conditions: foliage application, 320 g/ha, three weeks after application
In short: as §4

[27] = system: lambsquarters; test: Test Example 5: herbicidal effect by foliage application, plastic box (Table 20, symbol O); type: in vivo, lambsquarters (Chenopodium album); conditions: foliage application, 320 g/ha, three weeks after application
In short: as §4

[28] = system: chickweed; test: Test Example 5: herbicidal effect by foliage application, plastic box (Table 20, symbol P); type: in vivo, common chickweed (Stellaria media); conditions: foliage application, 320 g/ha, three weeks after application
In short: as §4

[29] = system: persian speedwell; test: Test Example 5: herbicidal effect by foliage application, plastic box (Table 20, symbol R); type: in vivo, Persian speedwell (Veronica persica); conditions: foliage application, 320 g/ha, three weeks after application
In short: as §4

COCCn1nc(C)c(O)c(-c2c(-c3ccc(F)cc3)sc3ccc(F)cc23)c1=O [2-429]
Herbicidal effect, A: late watergrass [1]: 3 (Herbicidal rate of 40% or more and less than 70%) | Herbicidal effect, B: Japanese bulrush [2]: 2 (Herbicidal rate of 20% or more and less than 40%) | Herbicidal effect, C: oval-leafed pondweed [3]: 3 (Herbicidal rate of 40% or more and less than 70%) | herbicidal effect on H: barnyard grass [4]: 3 (Herbicidal rate of 40% or more and less than 70%) | herbicidal effect on D: Chinese sprangletop [5]: 0 (Herbicidal rate of 5% or less (almost no effect)) | herbicidal effect on E: rice flat sedge [6]: 0 (Herbicidal rate of 5% or less (almost no effect)) | herbicidal effect, F: southern crabgrass [7]: 0 (Herbicidal rate of 5% or less (almost no effect)) | herbicidal effect, G: green foxtail [8]: 0 (Herbicidal rate of 5% or less (almost no effect)) | herbicidal effect, H: barnyard grass [9]: 0 (Herbicidal rate of 5% or less (almost no effect)) | herbicidal effect, I: wild oat [10]: 0 (Herbicidal rate of 5% or less (almost no effect)) | herbicidal effect, J: blackgrass [11]: 0 (Herbicidal rate of 5% or less (almost no effect)) | herbicidal effect, K: Italian ryegrass [12]: 0 (Herbicidal rate of 5% or less (almost no effect)) | herbicidal effect, L: windgrass [13]: 0 (Herbicidal rate of 5% or less (almost no effect)) | herbicidal effect, M: velvetleaf [14]: 1 (Herbicidal rate of 5% or more and less than 20%) | herbicidal effect, N: redroot pigweed [15]: 3 (Herbicidal rate of 40% or more and less than 70%) | herbicidal effect, O: lambsquarters [16]: 0 (Herbicidal rate of 5% or less (almost no effect)) | herbicidal effect, P: chickweed [17]: 0 (Herbicidal rate of 5% or less (almost no effect)) | herbicidal effect, R: persian speedwell [18]: 0 (Herbicidal rate of 5% or less (almost no effect)) | F: southern crabgrass, herbicidal effect grade [19]: 2 (Herbicidal rate of 20% or more and less than 40%) | G: green foxtail, herbicidal effect grade [20]: 0 (Herbicidal rate of 5% or less (almost no effect)) | H: barnyard grass, herbicidal effect grade [21]: 0 (Herbicidal rate of 5% or less (almost no effect)) | I: wild oat, herbicidal effect grade [22]: 0 (Herbicidal rate of 5% or less (almost no effect)) | J: blackgrass, herbicidal effect grade [23]: 0 (Herbicidal rate of 5% or less (almost no effect)) | K: Italian ryegrass, herbicidal effect grade [24]: 0 (Herbicidal rate of 5% or less (almost no effect)) | M: velvetleaf, herbicidal effect grade [25]: 2 (Herbicidal rate of 20% or more and less than 40%) | N: redroot pigweed, herbicidal effect grade [26]: 3 (Herbicidal rate of 40% or more and less than 70%) | O: lambsquarters, herbicidal effect grade [27]: 0 (Herbicidal rate of 5% or less (almost no effect)) | P: chickweed, herbicidal effect grade [28]: 5 (Herbicidal rate of 90% or more (almost completely withered)) | R: persian speedwell, herbicidal effect grade [29]: 4 (Herbicidal rate of 70% or more and less than 90%)
